IC50 data for eleven compounds are collected here from US9486455B2, “Compounds for modulating TRPV3 function” (HYDRA BIOSCIENCES, INC., priority 2007, dated 2016).

SMILES strings stand for the structures. Where two headings read alike, the source gives them in different places.

For one series, the target named is hERG (Homo sapiens, UniProt Q12809). Description: Ion channel selectivity, hERG channel current.
A further series addresses T1, human (h) TRPV3 (Homo sapiens, UniProt Q8NET8).
T1 construct: expressed in transfected cells; host or cells: HEK293/TREx, tetracycline-induced
T1 sequence (Q8NET8 1-790): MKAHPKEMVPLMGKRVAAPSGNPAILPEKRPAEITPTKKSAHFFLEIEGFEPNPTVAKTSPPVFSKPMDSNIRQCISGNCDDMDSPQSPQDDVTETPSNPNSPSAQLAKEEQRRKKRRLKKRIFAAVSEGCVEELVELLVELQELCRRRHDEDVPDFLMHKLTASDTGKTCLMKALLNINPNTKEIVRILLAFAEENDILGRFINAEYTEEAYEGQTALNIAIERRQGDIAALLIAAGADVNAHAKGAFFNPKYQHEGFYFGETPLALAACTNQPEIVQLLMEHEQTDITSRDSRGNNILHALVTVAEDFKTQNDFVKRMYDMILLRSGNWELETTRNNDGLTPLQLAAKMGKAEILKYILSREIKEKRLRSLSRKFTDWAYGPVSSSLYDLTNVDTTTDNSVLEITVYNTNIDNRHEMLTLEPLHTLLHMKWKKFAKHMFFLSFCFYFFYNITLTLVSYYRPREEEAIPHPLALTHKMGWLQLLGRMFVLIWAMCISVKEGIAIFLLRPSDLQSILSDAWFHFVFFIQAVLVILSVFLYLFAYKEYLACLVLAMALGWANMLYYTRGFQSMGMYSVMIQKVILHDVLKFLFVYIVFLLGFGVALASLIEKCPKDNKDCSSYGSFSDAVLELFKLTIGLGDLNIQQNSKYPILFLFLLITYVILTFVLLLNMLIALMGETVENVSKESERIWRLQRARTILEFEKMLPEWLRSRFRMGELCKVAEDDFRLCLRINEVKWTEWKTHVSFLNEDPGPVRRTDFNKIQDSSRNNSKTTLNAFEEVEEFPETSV
The experiment in a line: Whole-cell patch clamp, human TRPV3-mediated currents.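 Further: compounds tested at concentrations up to 30 µM.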 The series is classed as cell-based. An excerpt:
(§1) Whole-cell patch clamp experiments permit the detection of currents through the TRPV3 channel in the cell line described above. A glass electrode is brought into contact with a single cell and the membrane is then ruptured, permitting control of the voltage of the cell membrane and measurement of currents flowing across the membrane using the amplifier attached to the electrode. A perfusion system permits control of the extracellular solution, including the addition of blockers and activators of the current. The current can be activated by heating this solution to 28° C. or warmer or by addition of 20 μM 2-APB to the solution.
(§2) TRPV3 cells were induced 20-48 hours, removed from growth plates, and replated at low density (to attain good single-cell physical separation) on glass coverslips for measurement. In some cases, cells were grown in low density overnight on glass coverslips. Patch clamp recordings were made in the whole-cell mode with a holding potential of −40 mV. Every 5 seconds, a voltage ramp was applied from −120 to +100 mV, 400 ms in duration. Currents elicited were quantified at −80 mV and +80 mV. The internal solution consisted of 140 mM cesium aspartate, 10 mM EGTA, 2.27 mM MgCl2, 1.91 mM CaCl2 and 10 mM HEPES, pH to 7.2 with KOH; with 50 nM calculated free Ca^2+. External solution was Ringer's solution described above. Upon addition of 2-APB or upon heating of the extracellular solution as described above, TRPV3 current was induced only in TRPV3-expressing cells and not in parental HEK293 TREx cells. […] Removal of the stimulus caused most of the current to go away, and inhibitor addition could still inhibit this current. […]
(§3) P1 refers to the Phase 1 current for human (h) and rat (r) TRPV3, and P2 refers to the Phase 2 current for human (h) and rat (r) TRPV3.
On the technique in general: In patch-clamp work, channel activity is measured electrically.

The target in the next series is T2, rat (r) TRPV3 (Rattus norvegicus, UniProt Q4QYD9).
T2 construct: expressed in transfected cells
T2 sequence (Q4QYD9 1-791): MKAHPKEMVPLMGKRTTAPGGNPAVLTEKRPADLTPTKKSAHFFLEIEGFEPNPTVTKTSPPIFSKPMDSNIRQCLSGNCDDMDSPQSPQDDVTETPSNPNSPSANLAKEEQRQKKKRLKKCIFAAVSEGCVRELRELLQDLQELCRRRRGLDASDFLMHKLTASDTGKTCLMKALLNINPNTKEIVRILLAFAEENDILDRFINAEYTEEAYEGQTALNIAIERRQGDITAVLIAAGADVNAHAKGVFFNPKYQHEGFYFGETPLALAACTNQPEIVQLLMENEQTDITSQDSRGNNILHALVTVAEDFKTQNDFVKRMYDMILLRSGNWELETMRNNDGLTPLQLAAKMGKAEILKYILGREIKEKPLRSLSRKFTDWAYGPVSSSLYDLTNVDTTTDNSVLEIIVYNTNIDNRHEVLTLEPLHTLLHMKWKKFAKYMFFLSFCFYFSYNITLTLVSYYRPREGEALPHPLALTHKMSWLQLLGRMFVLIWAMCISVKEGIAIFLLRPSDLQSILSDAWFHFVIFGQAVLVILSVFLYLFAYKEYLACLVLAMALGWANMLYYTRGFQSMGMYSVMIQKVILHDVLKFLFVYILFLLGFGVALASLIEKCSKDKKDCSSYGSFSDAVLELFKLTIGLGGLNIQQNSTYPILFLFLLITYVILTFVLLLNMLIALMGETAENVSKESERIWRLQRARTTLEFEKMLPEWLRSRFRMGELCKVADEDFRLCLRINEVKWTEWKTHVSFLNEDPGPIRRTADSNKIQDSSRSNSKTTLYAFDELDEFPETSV
Description: Whole-cell patch clamp, rat TRPV3-mediated currents.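 Further: compounds tested at concentrations up to 30 µM.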 The series is classed as cell-based.
Source text: as §1, §2, §3

Where [1] appears, read: Phase 2 inward current, read-out: P2 In (h).
Where [2] appears, read: Phase 2 outward current, read-out: P2 Out (h).
[3] abbreviates: Phase 1 inward current, read-out: P1 In (r).
The mark [4] stands for this setting: Phase 1 outward current, read-out: P1 Out (r).
Setting [5] is: Phase 2 inward current, read-out: P2 In (r).
The mark [6] stands for this setting: Phase 2 outward current, read-out: P2 Out (r).
The mark [7] stands for this setting: Phase 1 inward current, read-out: P1 In (h).
[8] abbreviates: Phase 1 outward current, read-out: P1 Out (h).

Sequence of hERG (Q12809 whole entry): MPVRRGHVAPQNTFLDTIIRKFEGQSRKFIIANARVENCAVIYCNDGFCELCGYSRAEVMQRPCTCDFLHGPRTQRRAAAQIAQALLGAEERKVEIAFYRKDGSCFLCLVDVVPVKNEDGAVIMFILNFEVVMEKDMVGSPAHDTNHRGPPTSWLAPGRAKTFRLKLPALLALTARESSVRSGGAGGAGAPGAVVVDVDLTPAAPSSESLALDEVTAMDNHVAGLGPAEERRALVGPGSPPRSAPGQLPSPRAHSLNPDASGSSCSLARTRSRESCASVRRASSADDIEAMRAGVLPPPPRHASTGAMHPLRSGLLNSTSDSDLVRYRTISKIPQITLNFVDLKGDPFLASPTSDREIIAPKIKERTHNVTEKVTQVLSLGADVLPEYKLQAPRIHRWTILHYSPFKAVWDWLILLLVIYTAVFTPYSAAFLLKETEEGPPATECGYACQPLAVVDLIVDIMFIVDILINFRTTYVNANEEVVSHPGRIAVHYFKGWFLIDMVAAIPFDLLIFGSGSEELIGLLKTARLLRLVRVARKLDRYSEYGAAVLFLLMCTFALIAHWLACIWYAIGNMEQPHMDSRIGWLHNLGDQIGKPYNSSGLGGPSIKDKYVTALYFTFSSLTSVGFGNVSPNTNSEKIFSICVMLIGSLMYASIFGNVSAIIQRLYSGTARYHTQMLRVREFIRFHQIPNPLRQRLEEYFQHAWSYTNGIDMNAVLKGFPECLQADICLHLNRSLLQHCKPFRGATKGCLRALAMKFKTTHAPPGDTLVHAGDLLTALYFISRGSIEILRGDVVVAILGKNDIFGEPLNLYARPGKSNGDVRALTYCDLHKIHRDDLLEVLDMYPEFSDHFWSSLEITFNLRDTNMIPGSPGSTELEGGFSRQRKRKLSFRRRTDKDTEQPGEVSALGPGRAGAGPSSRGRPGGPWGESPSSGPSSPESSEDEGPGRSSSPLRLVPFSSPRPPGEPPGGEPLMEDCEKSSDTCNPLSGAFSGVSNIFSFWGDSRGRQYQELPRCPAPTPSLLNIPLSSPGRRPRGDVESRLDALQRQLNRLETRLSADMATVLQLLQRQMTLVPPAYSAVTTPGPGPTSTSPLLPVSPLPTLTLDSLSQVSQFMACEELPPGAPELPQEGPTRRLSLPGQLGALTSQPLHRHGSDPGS
Description for hERG: Compounds of interest can be tested against these channels at concentrations up to 30 μM, and the resulting data can be used to estimate IC50 for inhibition of the activity of these other ion channels.

Take `COc1cccc(C=Cc2nc3cnccc3c(=O)n2-c2c(C)cccc2C)c1O` [Compound 8]: the IC50 on hERG is no less than 20000 nM; on human (h) TRPV3 (setting [1]), no more than 500 nM; on human (h) TRPV3 (setting [2]), no more than 500 nM; at rat (r) TRPV3 (setting [3]), no more than 500 nM; at rat (r) TRPV3 (setting [4]), no more than 500 nM; at rat (r) TRPV3 (setting [5]), no more than 500 nM. On rat (r) TRPV3 (setting [6]), the IC50 was no more than 500 nM.
For `CCOc1cccc(/C=C/c2nc3cnccc3c(=O)n2-c2c(C)cccc2C)c1O` [Compound 11], the IC50 on hERG is no less than 20000 nM; on human (h) TRPV3 (setting [7]) it was no more than 500 nM; on human (h) TRPV3 (setting [8]), no more than 500 nM; at human (h) TRPV3 (setting [1]) it was no more than 500 nM; at human (h) TRPV3 (setting [2]) it was no more than 500 nM; at rat (r) TRPV3 (setting [3]), no more than 500 nM. The IC50 on rat (r) TRPV3 (setting [4]) is no more than 500 nM.
Turning to `COc1cccc(/C=C/c2nc3ccccc3c(=O)n2-c2c(C)ccnc2C)c1O` [Compound 32], the IC50 was no more than 500 nM on human (h) TRPV3 (setting [7]); no more than 500 nM at human (h) TRPV3 (setting [8]); no more than 500 nM on human (h) TRPV3 (setting [1]); no more than 500 nM at human (h) TRPV3 (setting [2]); no more than 1000 nM on rat (r) TRPV3 (setting [3]); no more than 1000 nM on rat (r) TRPV3 (setting [4]). In addition, the IC50 at rat (r) TRPV3 (setting [5]) was no more than 500 nM; on rat (r) TRPV3 (setting [6]) it was no more than 1000 nM.
For `COc1cccc(/C=C/c2nc3ccccc3c(=O)n2-c2c(C)cncc2C)c1O` [Compound 33], the IC50 at human (h) TRPV3 (setting [7]) is no more than 500 nM; on human (h) TRPV3 (setting [8]) it was no more than 500 nM; on human (h) TRPV3 (setting [1]), no more than 500 nM; at human (h) TRPV3 (setting [2]), no more than 5000 nM; on rat (r) TRPV3 (setting [3]), no more than 500 nM; on rat (r) TRPV3 (setting [4]), no more than 500 nM. In addition, the IC50 on rat (r) TRPV3 (setting [5]) and on rat (r) TRPV3 (setting [6]) was no more than 500 nM each time.
As to `CCOc1nccc(/C=C/c2nc3ccccc3c(=O)n2-c2ccccc2C)c1O` [Compound 43], the IC50 at human (h) TRPV3 (setting [7]), at human (h) TRPV3 (setting [8]), at human (h) TRPV3 (setting [1]), at human (h) TRPV3 (setting [2]), at rat (r) TRPV3 (setting [3]) and on rat (r) TRPV3 (setting [4]) was no more than 500 nM throughout. Also, the IC50 at rat (r) TRPV3 (setting [5]) and at rat (r) TRPV3 (setting [6]) was no more than 500 nM in each case.
With `CCOc1cccc(C=Cc2nc3ccccc3c(=O)n2-c2c(C)cccc2C)c1O` [Compound 49], the IC50 is no less than 20000 nM on hERG; no more than 500 nM at human (h) TRPV3 (setting [7]); no more than 500 nM on human (h) TRPV3 (setting [8]); no more than 500 nM at human (h) TRPV3 (setting [1]); no more than 500 nM on human (h) TRPV3 (setting [2]); no more than 500 nM on rat (r) TRPV3 (setting [3]). Moreover, the IC50 at rat (r) TRPV3 (setting [4]), at rat (r) TRPV3 (setting [5]) and on rat (r) TRPV3 (setting [6]) was no more than 500 nM throughout.
Turning to `CCc1cccc(CC)c1-n1c(/C=C/c2cccc(OC)c2O)nc2ccccc2c1=O` [Compound 50], the IC50 on hERG is no less than 20000 nM; on human (h) TRPV3 (setting [7]) it was no more than 500 nM; on human (h) TRPV3 (setting [8]), no more than 500 nM; at human (h) TRPV3 (setting [1]), no more than 500 nM; at human (h) TRPV3 (setting [2]), no more than 500 nM; on rat (r) TRPV3 (setting [3]) it was no more than 500 nM. Also, the IC50 at rat (r) TRPV3 (setting [4]), on rat (r) TRPV3 (setting [5]) and at rat (r) TRPV3 (setting [6]) was no more than 500 nM throughout.
As to `Cc1cccc(C)c1-n1c(/C=C/c2cccc(OC(C)C)c2O)nc2ccccc2c1=O` [Compound 51], the IC50 at human (h) TRPV3 (setting [7]), at human (h) TRPV3 (setting [8]), at human (h) TRPV3 (setting [1]), at human (h) TRPV3 (setting [2]), at rat (r) TRPV3 (setting [3]) and at rat (r) TRPV3 (setting [4]) was no more than 500 nM throughout.
For the compound `Cc1cccc(C)c1-n1c(/C=C/c2cccc(OC(F)(F)F)c2O)nc2ccccc2c1=O` [Compound 55], the IC50 on hERG was no less than 20000 nM; at human (h) TRPV3 (setting [7]), no more than 500 nM; at human (h) TRPV3 (setting [8]), no more than 500 nM; on human (h) TRPV3 (setting [1]), no more than 500 nM; on human (h) TRPV3 (setting [2]) it was no more than 500 nM; on rat (r) TRPV3 (setting [3]), no more than 500 nM. Further, the IC50 at rat (r) TRPV3 (setting [4]) is no more than 500 nM.
Consider `COc1cccc(/C=C/c2nc3ccccc3c(=O)n2-c2c(F)cccc2F)c1O` [Compound 56], for which the IC50 at human (h) TRPV3 (setting [7]), on human (h) TRPV3 (setting [8]), on human (h) TRPV3 (setting [1]), on human (h) TRPV3 (setting [2]), on rat (r) TRPV3 (setting [3]) and on rat (r) TRPV3 (setting [4]) was no more than 500 nM each time. Besides, the IC50 at rat (r) TRPV3 (setting [5]) and at rat (r) TRPV3 (setting [6]) was no more than 500 nM throughout.
Take `CCOc1cccc(C=Cc2nc3ccccc3c(=O)n2-c2c(F)cccc2F)c1O` [Compound 57]: the IC50 on human (h) TRPV3 (setting [7]), at human (h) TRPV3 (setting [8]), on human (h) TRPV3 (setting [1]), on human (h) TRPV3 (setting [2]), on rat (r) TRPV3 (setting [3]) and at rat (r) TRPV3 (setting [4]) was no more than 500 nM in each case.
